Series [1] relates to Plasmodium falciparum 3D7 parasites. Conditions: read-out: EC50 (in vitro, 3D7), cited from earlier work.
Series [2] deals with albumin. The series can be described thus: Plasma protein (albumin) binding by ultracentrifugation. It is filed as in vitro ADME. To be noted: pooled human plasma. The method, then: (§1) Clearance, half-life and plasma protein binding were assayed at TGC LifeScience, Kolkata, India, as described before.[36] Test compounds were incubated in duplicate in 96-well plates at 1 μM concentration with pooled human liver microsomes in 0.1 M phosphate buffer, pH 7.4 (0.4 mg mL^–1 final protein concentration; XenoTech, Lenexa, KS) in the presence and absence of 1 mM NADPH. Metabolism reactions were stopped by addition of 300 μL of ice-cold acetonitrile containing carbamazepine at 0.0236 μg mL^–1 as an internal standard, collection and analysis of the supernatant by LC–MS/MS (Agilent Rapid Resolution HPLC, AB SCIEX 4500 MS). The relative loss of the test compound over time was used to determine the first order rate constant for calculation of the in vitro intrinsic clearance and half-life.[37] Plasma protein binding was determined by ultracentrifugation from pooled human plasma spiked with 5 μM test compound. Aliquots were transferred immediately (total plasma concentration) or after 1 h at 37 °C (protein bound fraction) to ice-cold acetonitrile containing 0.0236 μg mL^–1 carbamazepine as an internal standard, ultracentrifuged for 4 h at 37 °C (Beckman Optima L-80XP), and analyzed by LC–MS/MS (Agilent Rapid Resolution HPLC, AB SCIEX 4500 QTRAP MS).

Series [3] concerns P. berghei. Set-up: method as in PMID 37428074. To be noted: all dosing regimens; cited from earlier work.
A short description of series [4]: Microsomal clearance and half-life. To be noted: 1 μM compound, 0.4 mg mL^–1 protein. In kind it is in vitro ADME, human. As for the experimental part:
as §1

Series [5] is described as follows: Lipophilicity log D7.4 by HPLC (OECD guideline). It is filed as physicochemical. Conditions: RP-8 HPLC column (ZORBAX Eclipse XDB-C8), pH 7.4. As for the experimental part:
Lipophilicity was determined according to the OECD Guidelines for the Testing of Chemicals no. […]. Briefly, the test compounds plus 9 standards (4-acetylpyridine, acetanilide, acetophenone, methyl benzoate, ethyl benzoate, benzophenone, phenyl benzoate, diphenyl ether, triphenylamine) were separated by HPLC with UV detection at 220 nm (Waters HPLC 1525 with tunable absorbance detector 486) using an RP-8 column (Agilent Technologies ZORBAX Eclipse XDB-C8 4.6 × 150 mm, 5 μm) at 20 °C. Eluents A (20 mM ammonium formate, pH 7.4) and B (methanol) were used to generate a gradient profile of 80% A–100% B (0–35 min), 100% B (35–37 min), 100% B–80% A (37–42 min), and 80% A (42–55 min) at a flow rate of 0.8 mL min^–1. The dead time was determined via the injection peak caused by the solvent. The log D7.4 values were calculated by correlating the capacity factors with the known values of the standards via polynomial fitting.

Series [6] deals with T1, PfFNT (Plasmodium falciparum, UniProt O77389).
T1 construct: expressed in transfected cells; membranes solubilized
T1 sequence (O77389 1-309): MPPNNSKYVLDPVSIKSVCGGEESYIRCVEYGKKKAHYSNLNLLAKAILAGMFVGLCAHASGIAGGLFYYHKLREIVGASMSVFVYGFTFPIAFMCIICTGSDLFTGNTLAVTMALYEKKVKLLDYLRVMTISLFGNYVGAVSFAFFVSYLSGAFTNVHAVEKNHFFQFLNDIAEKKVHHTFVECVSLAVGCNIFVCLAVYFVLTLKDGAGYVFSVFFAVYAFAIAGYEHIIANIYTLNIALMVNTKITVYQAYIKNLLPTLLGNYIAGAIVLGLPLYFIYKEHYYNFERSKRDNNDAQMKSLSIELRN
The series can be described thus: Fluorescence cross-correlation spectroscopy (FCCS) competition binding to solubilized PfFNT-GFP. To be noted: competition against BH267.meta-DY647 tracer, Cheng Prusoff; read-out: Ki (FCCS, protein). The method, then: FCCS measurements were conducted and analyzed as before.[20],[30] Briefly, membranes of stably transfected cells expressing PfFNT with a C-terminal GFP (green) were solubilized. BH267.meta 2 fused with DY647 (red) was used as a tracer to monitor the binding of compounds in a competition assay. Assays were done in […] glass bottom plates (cat. no. PS96B-G175, SWISSCI, Switzerland) using a plate reader (Insight, Evotec Technologies, Germany) fitted with a U-Apo300 40× water immersion lens, NA 1.15 (Olympus, Japan). Excitation was done with an argon-ion laser (488 nm) and a helium–neon laser (633 nm). Fluorescence fluctuations were recorded 10 times for 5 s per sample and fitted using FCS+ plus Analyze (PerkinElmer software). Initially, IC50 values were determined from the concentration of the dual labeled complex titrated against a competitor in a range of 100 pM to 100 μM (Figure S1). Then, Ki values were calculated using the Cheng Prusoff equation[31] based on the previously determined KD value for the BH267.meta-DY647 tracer.[20]

Series [7] deals with Plasmodium falciparum 3D7 parasites. The series can be described thus: P. falciparum 3D7 culture growth assay in erythrocytes (in vitro activity). It is filed as cell-based. Conditions: 50 nM compound. The method, then: The parasitemia was measured using an LSR II FACS (BD Biosciences) as described.[34],[35] Growth was assessed as % of untreated control. EC50 curves were plotted using Graph Pad Prism.
Transport assays in yeast were done in triplicate biological replicates. At least nine technical replicates were measured around the IC50 value, concentrations with no or full inhibition were determined from at least three technical replicates. […] IC50 and EC50 curves were fitted by the Hill equation with variable slope (Graph Pad Prism 10). Error bars denote ± SEM (for n ≥ 3) or ± range (for n = 2). […] Cytotoxicity was determined from biological triplicates; error is shown as SEM.

The target in series [8] is T1, PfFNT. Conditions: 14C-lactate transport, PfFNT wild type; ref Golldack[4] et al. 2017; read-out: IC50 (transport, yeast); cited from earlier work.

We go through two compounds from paper PMC11513924, “Addressing the Intracellular Vestibule of the Plasmodial Lactate Transporter PfFNT by p-Substituted Inhibitors Amplifies In Vitro Activity” (Journal of Medicinal Chemistry, 2024).

Read-outs that look alike come from different tables or passages of the source.

Broadly, the EC50 is the concentration that produces a half-maximal response. The term chromatographic logD denotes lipophilicity estimated from chromatographic retention. A low value points to a more hydrophilic compound. One may read the Ki as a dissociation constant, usually derived from enzyme kinetics or from competition with a known ligand. As to `O=C(/C=C(\O)C(F)(F)C(F)(F)F)c1cccnc1` [compound 2, 4,4,5,5,5-Pentafluoro-3-hydroxy-1-(pyridin-3-yl)pent-2-en-1-one, reference compound], in series [1] (ref Walloch[6] et al. 2020), the 50% effective concentration (EC50) was 240 ± 10 nM. In series [2], the “unbound fraction in plasma” value amounted to 8.76%. In series [2] (5 μM), this compound showed an albumin binding of 91.24%. In series [3], the parasites eliminated is over 99.7%. In series [4], the “human liver microsomes Clint” value is given as 3.98 mL min^–1 kg^–1. The half-life at 1 µM in series [4] (human, pooled human liver microsomes, pH 7.4, read-out: human liver microsomes t1/2) came out at 5.8 h. The chromatographic logD in series [5] came to 1.75. The Ki in series [6] came to 35 ± 10 nM. For the same compound, the activity at 0.05 µM in series [7] (Plasmodium falciparum, 3D7, Erythrocyte, 48 h, % of untreated control, read-out: % Growth at 50 nM (in vitro, 3D7)) was over 90%. Moreover, the inhibition at 0.05 µM in series [7] (Plasmodium falciparum, 3D7, Erythrocyte, 100 minus % growth, read-out: inhibitory activity at 50 nM (in vitro, 3D7)) was under 10%.
The IC50 is the concentration that inhibits the measured activity by half. As for “MMV007839 [compound 1, reference compound]”, in series [1] (ref Golldack[4] et al. 2017), the EC50 is 140 ± 10 nM. For the same compound, the IC50 in series [8] was 170 ± 10 nM. In addition, in series [6], the Ki turned out to be 83 ± 33 nM. In series [7] (% of untreated control), the “% Growth at 50 nM (in vitro, 3D7)” value is listed as over 90%. In addition, the “inhibitory activity at 50 nM (in vitro, 3D7)” value in series [7] (100 minus % growth) was under 10%.
